Measured values published in patent publication US10172814B2, “Substituted pyridyl-cycloalkyl-carboxylic acids, compositions containing them and medical uses thereof” (BAYER PHARMA AKTIENGESELLSCHAFT, priority 2014, dated 2019).
Like-named read-outs stand apart in the source and are kept apart here.

How the values were obtained:
[1] = tested on: CFA induced PGE2 release in the ipsilateral inflamed hind paw of human KI mice (expressing human PTGES); assay: PGE2 measurements in CFA inflammation model using humanized KI mice; assay type: in vivo; conditions: for % inhibition of PGE2 in vivo vs vehicle: p.o., single dose, hind paw 48 h after CFA, 1 h after dose
Description: PGE2 Measurements in CFA Inflammation Model Using Humanized KI Mice
Female transgenic mice expressing the human PTGES enzyme (Taconic, Xu et al. 2008) received intraplantar injection of complete Freund's adjuvant (CFA) (30 μl, 1 mg/ml, Sigma) into the left hind paw under isoflurane anesthesia. […] At termination of the experiments (48 h after CFA, 1 h after dose), hind paw tissue is collected for analysis of PGE2 levels (ELISA, Cayman Chemical item no. 514531). […] Statistical analysis is performed with one-way analysis of variance, followed by Bonferroni's multiple comparison test vs. vehicle controls using the GraphPad PRISM software, *p<0.05, **p<0.01.

[2] = tested on: CFA-induced pain behavior in WT mice; assay: CFA inflammation model with pain read out (dynamic weight bearing); assay type: in vivo; conditions: single oral dosing on day 2 post-CFA, example 17: 30, 100 mg/kg, example 44: 30, 75 mg/kg
Description: Efficacy in CFA Inflammation Model with Pain Read Out
Wild type (WT) female c57bl/6 mice (Taconic) received intraplantar injection of complete Freund's adjuvant (CFA) (30 μl, 1 mg/ml, Sigma) into the left hind paw under isoflurane anesthesia. […] Spontaneous pain-related behavior in freely moving animals was assessed using the automated dynamic weight bearing device (DWB, Bioseb, France) according to published and validated protocols: Robinson I, Sargent B, Hatcher J P, Neurosci Lett. 2012 Aug. 30; 524(2):107-10. Use of dynamic weight bearing as a novel end-point for the assessment of Freund's Complete Adjuvant induced hypersensitivity in mice; Tétreault P, Dansereau M A, Doré-Savard L, Beaudet N, Sarret P. Physiol Behav. 2011 Sep. […] 2014 Jul. 30; 232:118-24. Use of dynamic weight bearing as a novel end-point for the assessment of abdominal pain in the LPS-induced peritonitis model in the rat. For behavioral testing, the animal was placed inside a Plexiglas chamber and allowed to move freely within the apparatus for a 5 min period, subsequently pain behavior is recorded for a test period of another 5 min.
Statistical analysis is performed with one-way analysis of variance, followed by Bonferroni's multiple comparison test vs. vehicle controls using the GraphPad PRISM software, *p<0.05, **p<0.01.

[3] = Unbound plasma concentration in human KI mice of the CFA model; assay type: in vivo; conditions: female, human PTGES knock-in (humanized KI, transgenic) mice, mouse, read-out: Plasma concentration Cplasma-unbound
Description: At termination of the experiments (48 h after CFA, 1 h after dose), hind paw tissue is collected for analysis of PGE2 levels (ELISA, Cayman Chemical item no. 514531). […] Statistical analysis is performed with one-way analysis of variance, followed by Bonferroni's multiple comparison test vs. vehicle controls using the GraphPad PRISM software, *p<0.05, **p<0.01.

human PTGES = human PTGES (Homo sapiens (Human), UniProt O14684); assay: Human PTGES biochemical enzyme inhibition assay (conversion of PGH2 to PGE2, TR-FRET)
Outline: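 FLAG-tagged human PTGES from Hi-5 insect cells preincubated 15–20 min with compound in pH 7.2 phosphate buffer with 2.5 mM reduced glutathione; reaction started with 8 nM PGH2 final, stopped with SnCl2/KF.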

[4] = Enzymatic conversion of PGH2 to PGE2, read-out: Human PTGES IC50
[5] = human PTGES, as listed in Table 2, read-out: hu IC50 biochem.

Sequence of human PTGES (O14684 whole entry): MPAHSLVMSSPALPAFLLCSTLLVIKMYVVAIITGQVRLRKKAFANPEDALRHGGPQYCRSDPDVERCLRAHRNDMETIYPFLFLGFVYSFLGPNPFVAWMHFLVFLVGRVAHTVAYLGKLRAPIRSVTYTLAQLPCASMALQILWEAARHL

SMILES | % inhibition of PGE2 in vivo vs vehicle ([1]; 1 mg/kg) | % inhibition of PGE2 in vivo vs vehicle ([1]; 3 mg/kg) | % inhibition of PGE2 in vivo vs vehicle ([1]; 10 mg/kg) | IC50 (human PTGES; [4]) | also measured
Cc1c(CCC(=O)O)cccc1NC(=O)C(c1ccc(-c2cncc(Cl)c2)c(F)c1)C1CCCC1 (single isomer, unassigned; (-)) [Example 44, (−) 3-[3-({[4-(5-Chloropyridin-3-yl)-3-fluorophenyl](cyclopentyl)acetyl}amino)-2-methylphenyl]propanoic acid] | 95% | 65% | 100% |  | inhibition of CFA-induced PGE2 formation/release in the hind paw ([1]; single oral dosing, hu KI mice): strong efficacy; pain behavior as assessed by DWB after CFA-induced inflammation [2]: significantly and dose-dependently reduced pain behavior; concentration at 1 h ([3]; plasma, oral, 1 mg/kg): 15 nM; concentration at 1 h ([3]; plasma, oral, 3 mg/kg): 47 nM; concentration at 1 h ([3]; plasma, oral, 10 mg/kg): 173 nM
Cc1c(CCC(=O)O)cccc1NC(=O)C(c1ccc(-c2cncc(C(F)(F)F)c2)c(F)c1)C1CCCC1 (single isomer, unassigned; (-)) [Example 48, (−) 3-{3-[(Cyclopentyl{3-fluoro-4-[5-(trifluoromethyl)pyridin-3-yl]phenyl}acetyl)amino]-2-methylphenyl}propanoic acid] | 38% | 74% | 78% | 14.2 nM | IC50 (human PTGES; [5]): 3 nM; concentration at 1 h ([3]; in vivo, 1 mg/kg): 11 nM; concentration at 1 h ([3]; in vivo, 3 mg/kg): 32 nM; concentration at 1 h ([3]; in vivo, 10 mg/kg): 88 nM
Cc1c(CCC(=O)O)cccc1NC(=O)C(c1ccc(-c2cncc(C(F)(F)F)c2)cc1)C1CCC1 (single isomer, unassigned; (-)) [Example 55, (−) 3-{3-[(Cyclobutyl{4-[5-(trifluoromethyl)pyridin-3-yl]phenyl}acetyl)amino]-2-methylphenyl}propanoic acid] | 84% | 93% | 96% | 35.4 nM | IC50 (human PTGES; [5]): 27 nM; concentration at 1 h ([3]; in vivo, 1 mg/kg): 34 nM; concentration at 1 h ([3]; in vivo, 3 mg/kg): 103 nM; concentration at 1 h ([3]; in vivo, 10 mg/kg): 322 nM
Cc1c(NC(=O)C(c2ccc(-c3cncc(Cl)c3)cc2)C2CCCC2)cccc1C(C)CC(=O)O (single isomer, unassigned; stereoisomer 2) [Example 87, 3-[3-({[4-(5-Chloropyridin-3-yl)phenyl](cyclopentyl)acetyl}amino)-2-methylphenyl]butanoic acid, Stereoisomer 2] | 43% | 65% | 67% |  | concentration at 1 h ([3]; plasma, oral, 1 mg/kg): 25 nM; concentration at 1 h ([3]; plasma, oral, 3 mg/kg): 75 nM; concentration at 1 h ([3]; plasma, oral, 10 mg/kg): 172 nM
Cc1c(CCC(=O)O)cccc1NC(=O)[C@@H](c1ccc(-c2cncc(C(F)(F)F)c2)cc1)C1CCCC1 [Example 2, (−) (R) 3-{3-[(Cyclopentyl{4-[5-(trifluoromethyl)pyridin-3-yl]phenyl}acetyl)amino]-2-methylphenyl}propanoic acid] | 37% | 75% | 94% |  | concentration at 1 h ([3]; plasma, oral, 1 mg/kg): 21 nM; concentration at 1 h ([3]; plasma, oral, 3 mg/kg): 62 nM; concentration at 1 h ([3]; plasma, oral, 10 mg/kg): 190 nM
Cc1ncc(-c2ccc(C(C(=O)Nc3cccc(C4CC4C(=O)O)c3C)C3CCCC3)cc2)cc1Cl (centres unmarked) [Example 154, 2-[3-({2-[4-(5-chloro-6-methylpyridin-3-yl)phenyl]-2-cyclopentylacetyl}amino)-2-methylphenyl]cyclopropanecarboxylic acid] |  |  |  | 42.8 nM | 
CCOc1cncc(-c2ccc(C(C(=O)Nc3cccc(C4CC4C(=O)O)c3C)C3CCCC3)cc2)c1 (centres unmarked) [Example 155, 2-[3-({2-cyclopentyl-2-[4-(5-ethoxypyridin-3-yl)phenyl]acetyl}amino)-2-methylphenyl]cyclopropanecarboxylic acid] |  |  |  | 158 nM | 
Cc1c(NC(=O)C(c2ccc(-c3cncc(C(F)(F)F)c3)cc2)C2CCCC2)cccc1C1CC1C(=O)O (centres unmarked) [Example 156, 2-(3-{[2-cyclopentyl-2-{4-[5-(trifluoromethyl)pyridin-3-yl]phenyl}acetyl]amino}-2-methylphenyl)cyclopropanecarboxylic acid] |  |  |  | 32.9 nM | 
Cc1ncc(-c2ccc([C@H](C(=O)Nc3ccc(F)c(CCC(=O)O)c3C)C3CCCC3)cc2)cc1Cl [Example 184, 3-[3-({(2R)-2-[4-(5-chloro-6-methylpyridin-3-yl)phenyl]-2-cyclopentylacetyl}amino)-6-fluoro-2-methylphenyl]propanoic acid] |  |  |  | 23.7 nM | 
Cc1ncc(-c2ccc([C@H](C(=O)Nc3cccc(N(C)CC(=O)O)c3C)C3CCCC3)cc2)cc1Cl [Example 187, N-[3-({(2R)-2-[4-(5-chloro-6-methylpyridin-3-yl)phenyl]-2-cyclopentylacetyl}amino)-2-methylphenyl]-N-methylglycine] |  |  |  | 23.9 nM | 
Cc1c(CCC(=O)O)cccc1NC(=O)[C@@H](c1ccc(-c2cncc(OC(C)C)c2)cc1)C1CCCC1 [Example 190, 3-(3-{[(2R)-2-cyclopentyl-2-{4-[5-(propan-2-yloxy)pyridin-3-yl]phenyl}acetyl]amino}-2-methylphenyl)propanoic acid] |  |  |  | 36.1 nM | 
Cc1c(CCC(=O)O)cccc1NC(=O)[C@@H](c1ccc(-c2cncc(CC(F)(F)F)c2)cc1)C1CCCC1 [Example 191, 3-(3-{[(2R)-2-cyclopentyl-2-{4-[5-(2,2,2-trifluoroethyl)pyridin-3-yl]phenyl}acetyl]amino}-2-methylphenyl)propanoic acid] |  |  |  | 60.1 nM | 
Cc1ncc(-c2ccc([C@H](C(=O)Nc3cccc(CCC(=O)O)c3C)C3CCCC3)cc2)cc1C(F)(F)F [Example 192, 3-(3-{[(2R)-2-cyclopentyl-2-{4-[6-methyl-5-(trifluoromethyl)pyridin-3-yl]phenyl}acetyl]amino}-2-methylphenyl)propanoic acid] |  |  |  | 13.5 nM | 
Cc1c(NC(=O)[C@@H](c2ccc(-c3cncc(Cl)c3)cc2)C2CCCC2)cccc1C(O)CC(=O)O (stereo partly drawn) [Example 193, 3-[3-({(2R)-2-[4-(5-chloropyridin-3-yl)phenyl]-2-cyclopentylacetyl}amino)-2-methylphenyl]-3-hydroxypropanoic acid] |  |  |  | 232 nM | 
COc1c(CCC(=O)O)cccc1NC(=O)C(c1ccc(-c2cncc(C(F)(F)F)c2)cc1)C1CCCC1 (centres unmarked) [Example 213, 3-{3-[(cyclopentyl{4-[5-(trifluoromethyl)pyridin-3-yl]phenyl}acetyl)amino]-2-methoxyphenyl}propanoic acid] |  |  |  | 328 nM | 
O=C(O)CCc1cccc(NC(=O)[C@@H](c2ccc(-c3cncc(C(F)(F)F)c3)cc2)C2CCCC2)c1C(F)(F)F [Example 215, 3-[3-{[(2R)-2-cyclopentyl-2-{4-[5-(trifluoromethyl)pyridin-3-yl]phenyl}acetyl]amino}-2-(trifluoromethyl)phenyl]propanoic acid] |  |  |  | 258 nM | 
